Source: patent US7132278B2, “PAS kinase” (Board of Regents, The University of Texas System, priority 2001, dated 2006)

Molecular target: PASK (Homo sapiens, UniProt Q96RG2, F1266C/Y899H)
Settings: read-out: Km for PASK; ATP as co-substrate
Description: One HTS assay kinase assay we employ is a robust and simple, non-radioactive chemiluminescent assay that measures the ability of the human enzyme to phosphorylate a biotinylated derivative of the AMARA peptide. The enzyme is expressed in baculovirus and purified by affinity and ion-exchange chromatography under routine conditions. Assay buffer is composed of 20 mM Tris-HC1, pH 7.5, 10 mM MgC12, 2 mM EGTA, 0.1% NP-40, 0.5 mM benzamidine, 1 mM NaF and 10 mM DTT. Enzyme is added to this buffer at a concentration determined to be in the linear range of activity (10 ng per microtiter plate well). For the most robust and sensitive kinase assay, we use an ATP concentration matching the Kmfor PASK (2.5 mM). After dispensing 80 ul of the enzyme/buffer mix per well in Costar 96-well microtiter plates (coated with Neutravidin at 0.5 mg/ml at room temperature for 2 hr), 10 μl of test compounds is added at a final concentration of 1 μM compound. Compounds are diluted in DMSO from master plates stored in DMSO at 10 mM. Following compound addition, the reactions are initiated by addition of 10 μl of biotinylated AMARA peptide and ATP such that the final concentration of substrate and ATP are 1 mM and 2.5 mM respectively. […] Reactions are developed by addition of 100 μl of Super Signal substrate (Pierce) and read colorimetrically using a Wallac Victor2, 1420 Multilabel Counter.

PASK, sequence (Q96RG2 whole entry Y899H/F1266C): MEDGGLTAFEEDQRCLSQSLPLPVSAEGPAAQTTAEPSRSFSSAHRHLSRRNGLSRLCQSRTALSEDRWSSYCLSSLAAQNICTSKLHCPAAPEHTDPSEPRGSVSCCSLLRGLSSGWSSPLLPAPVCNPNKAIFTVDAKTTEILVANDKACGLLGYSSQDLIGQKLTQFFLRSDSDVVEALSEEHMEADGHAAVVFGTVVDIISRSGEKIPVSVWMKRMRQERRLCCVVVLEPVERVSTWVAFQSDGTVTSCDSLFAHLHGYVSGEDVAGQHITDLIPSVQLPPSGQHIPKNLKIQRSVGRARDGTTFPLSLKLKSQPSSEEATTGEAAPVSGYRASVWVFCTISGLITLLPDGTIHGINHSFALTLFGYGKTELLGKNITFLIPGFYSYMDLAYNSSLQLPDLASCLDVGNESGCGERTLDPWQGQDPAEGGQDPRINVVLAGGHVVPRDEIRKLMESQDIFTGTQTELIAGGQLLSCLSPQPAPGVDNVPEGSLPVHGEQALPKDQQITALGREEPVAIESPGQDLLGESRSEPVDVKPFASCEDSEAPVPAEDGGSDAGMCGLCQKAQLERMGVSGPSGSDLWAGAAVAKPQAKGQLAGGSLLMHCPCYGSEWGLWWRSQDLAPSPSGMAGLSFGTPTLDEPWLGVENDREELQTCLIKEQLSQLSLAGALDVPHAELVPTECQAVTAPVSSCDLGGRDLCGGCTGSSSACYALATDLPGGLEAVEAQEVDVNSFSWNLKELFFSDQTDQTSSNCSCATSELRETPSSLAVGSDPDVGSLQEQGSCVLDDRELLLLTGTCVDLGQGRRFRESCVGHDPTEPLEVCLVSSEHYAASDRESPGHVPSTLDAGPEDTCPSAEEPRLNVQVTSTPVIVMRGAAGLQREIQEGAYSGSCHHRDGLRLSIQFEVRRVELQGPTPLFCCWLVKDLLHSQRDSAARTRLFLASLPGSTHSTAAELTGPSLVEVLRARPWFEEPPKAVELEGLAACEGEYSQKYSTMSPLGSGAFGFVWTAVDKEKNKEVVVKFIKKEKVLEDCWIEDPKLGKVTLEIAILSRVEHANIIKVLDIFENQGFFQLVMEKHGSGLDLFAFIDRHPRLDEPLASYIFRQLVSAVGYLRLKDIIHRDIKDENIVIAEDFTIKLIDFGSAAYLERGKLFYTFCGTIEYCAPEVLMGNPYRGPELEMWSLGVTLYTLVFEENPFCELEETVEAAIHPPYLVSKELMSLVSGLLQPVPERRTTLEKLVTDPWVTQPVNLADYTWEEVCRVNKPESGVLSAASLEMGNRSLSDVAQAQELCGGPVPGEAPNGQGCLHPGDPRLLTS

With `Nc1ncnc2c1ncn2[C@@H]1O[C@H](COP(=O)(O)OP(=O)(O)OP(=O)(O)O)[C@@H](O)[C@H]1O` [ATP] the Km was 2500 µM.
